*1 amine or outer side, *2 acyl side, *3 side chain or, on linkers, in order; H or OH if unused. Where a SMILES comes first, the peptide text is derived from it. Side-chain parts run from the residue outwards. [ ]: non-standard residue; d: D form. The star is where a group is joined. γGlu = O=C(O)[C@H](CCC(=O)[*:2])N[*:1]; Palmitoyl = CCCCCCCCCCCCCCCC(=O)*; Aib = CC(C)(N)C(=O)O
The compounds below were run against T1, human GLP-1 receptor (hGLP-1 R) (Homo sapiens, UniProt P43220) (assay: cAMP response (HTRF) of HEK-293 cells stably expressing human GLP-1 receptor). Conditions: HEK-293 cells expressing human GLP-1 receptor, cAMP formation.
T1 construct: expressed in transfected cells; host or cells: HEK-293
T1 sequence (P43220 24-463): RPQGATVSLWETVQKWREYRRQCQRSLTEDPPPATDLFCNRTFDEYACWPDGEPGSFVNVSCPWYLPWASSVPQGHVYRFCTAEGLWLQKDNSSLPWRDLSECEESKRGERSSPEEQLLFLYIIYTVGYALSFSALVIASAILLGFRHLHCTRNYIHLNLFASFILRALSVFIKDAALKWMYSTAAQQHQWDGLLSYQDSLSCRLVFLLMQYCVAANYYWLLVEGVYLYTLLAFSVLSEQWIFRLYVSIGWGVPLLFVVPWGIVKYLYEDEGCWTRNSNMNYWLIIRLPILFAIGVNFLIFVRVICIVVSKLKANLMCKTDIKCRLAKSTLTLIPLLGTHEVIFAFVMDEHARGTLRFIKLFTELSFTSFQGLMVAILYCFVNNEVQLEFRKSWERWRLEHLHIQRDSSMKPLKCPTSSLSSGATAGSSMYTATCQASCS
Type: cell-based
Description: cAMP content of cells was determined using a kit from Cisbio Corp. (cat. no. 62AM4PEC) based on HTRF (Homogenous Time Resolved Fluorescence). For preparation, cells were split into T175 culture flasks and grown overnight to near confluency in medium (DMEM/10% FBS). Medium was then removed and cells washed with PBS lacking calcium and magnesium, followed by proteinase treatment with accutase (Sigma-Aldrich cat. no. A6964). Detached cells were washed and resuspended in assay buffer (1×HBSS; 20 mM HEPES, 0.1% BSA, 2 mM IBMX) and cellular density determined. […] For measurement, 25 μl of test compound in assay buffer was added to the wells, followed by incubation for 30 minutes at room temperature.

Row | Compound | EC50 [pM]
1 | CCCCCCCCCCCCCCCC(=O)N[C@@H](CCC(=O)NCCCC[C@H](NC(=O)[C@@H]1CCCN1C(=O)[C@@H]1CCCN1C(=O)[C@@H]1CCCN1C(=O)[C@H](C)NC(=O)CNC(=O)[C@H](CO)NC(=O)[C@H](CO)NC(=O)[C@@H]1CCCN1C(=O)CNC(=O)CNC(=O)[C@H](CC(N)=O)NC(=O)[C@H](CCCCN)NC(=O)[C@H](CC(C)C)NC(=O)[C@H](Cc1c[nH]c2ccccc12)NC(=O)[C@H](CCC(=O)O)NC(=O)[C@@H](NC(=O)[C@H](Cc1ccccc1)NC(=O)[C@H](CC(=O)O)NC(=O)[C@H](CCC(N)=O)NC(=O)[C@H](C)NC(=O)[C@H](CCCNC(=N)N)NC(=O)[C@H](CCCNC(=N)N)NC(=O)[C@H](CO)NC(=O)[C@H](CC(=O)O)NC(=O)[C@H](CCSC)NC(=O)[C@H](CCC(N)=O)NC(=O)[C@H](CCCCN)NC(=O)[C@H](CO)NC(=O)[C@H](CC(C)C)NC(=O)[C@H](CC(=O)O)NC(=O)[C@H](CO)NC(=O)[C@@H](NC(=O)[C@H](Cc1ccccc1)NC(=O)[C@@H](NC(=O)CNC(=O)[C@H](CCC(N)=O)NC(=O)[C@H](CO)NC(=O)[C@@H](N)Cc1c[nH]cn1)[C@@H](C)O)[C@@H](C)O)[C@@H](C)CC)C(N)=O)C(=O)O [(6)] | 3.1
2 | CC[C@H](C)[C@H](NC(=O)[C@H](Cc1ccccc1)NC(=O)[C@H](CC(=O)O)NC(=O)[C@H](CCCCN)NC(=O)[C@H](C)NC(=O)[C@H](CCCNC(=N)N)NC(=O)[C@H](CCCNC(=N)N)NC(=O)[C@H](CCC(=O)O)NC(=O)[C@H](CCC(=O)O)NC(=O)[C@H](CCSC)NC(=O)[C@H](CCC(N)=O)NC(=O)[C@H](CCCCN)NC(=O)[C@H](CO)NC(=O)[C@H](CC(C)C)NC(=O)[C@H](CC(=O)O)NC(=O)[C@H](CO)NC(=O)[C@@H](NC(=O)[C@H](Cc1ccccc1)NC(=O)[C@@H](NC(=O)CNC(=O)[C@H](CCC(N)=O)NC(=O)[C@H](CO)NC(=O)[C@@H](N)Cc1c[nH]cn1)[C@@H](C)O)[C@@H](C)O)C(=O)N[C@@H](CCC(=O)O)C(=O)N[C@@H](Cc1c[nH]c2ccccc12)C(=O)N[C@@H](CC(C)C)C(=O)N[C@@H](CCCCN)C(=O)N[C@@H](CC(N)=O)C(=O)NCC(=O)NCC(=O)N1CCC[C@H]1C(=O)N[C@@H](CO)C(=O)N[C@@H](CO)C(=O)NCC(=O)N[C@@H](C)C(=O)N1CCC[C@H]1C(=O)N1CCC[C@H]1C(=O)N1CCC[C@H]1C(=O)N[C@@H](CO)C(N)=O [(16)] (H-HSQGTFTSDLSKQMEERRAKDFIEWLKNGGPSSGAPPPS-NH2) | 7.6
3 | CCCCCCCCCCCCCCCC(=O)NCCCC[C@H](NC(=O)[C@H](CO)NC(=O)[C@@H]1CCCN1C(=O)[C@@H]1CCCN1C(=O)[C@@H]1CCCN1C(=O)[C@H](C)NC(=O)CNC(=O)[C@H](CO)NC(=O)[C@H](CO)NC(=O)[C@@H]1CCCN1C(=O)CNC(=O)CNC(=O)[C@H](CC(N)=O)NC(=O)[C@H](CCCCN)NC(=O)[C@H](CC(C)C)NC(=O)[C@H](Cc1c[nH]c2ccccc12)NC(=O)[C@H](CCC(=O)O)NC(=O)[C@@H](NC(=O)[C@H](Cc1ccccc1)NC(=O)[C@H](CC(=O)O)NC(=O)[C@H](CCC(N)=O)NC(=O)[C@H](C)NC(=O)[C@H](CCCNC(=N)N)NC(=O)[C@H](CCCNC(=N)N)NC(=O)[C@H](CO)NC(=O)[C@H](CC(=O)O)NC(=O)[C@H](CCSC)NC(=O)[C@H](CCC(N)=O)NC(=O)[C@H](CCCCN)NC(=O)[C@H](CO)NC(=O)[C@H](CC(C)C)NC(=O)[C@H](CC(=O)O)NC(=O)[C@H](CO)NC(=O)[C@@H](NC(=O)[C@H](Cc1ccccc1)NC(=O)[C@@H](NC(=O)CNC(=O)[C@H](CCC(N)=O)NC(=O)[C@@H](CO)NC(=O)[C@@H](N)Cc1c[nH]cn1)[C@@H](C)O)[C@@H](C)O)[C@@H](C)CC)C(N)=O [(26)] | 9.7
4 | CC[C@H](C)[C@H](NC(=O)[C@H](Cc1ccccc1)NC(=O)[C@H](CC(=O)O)NC(=O)[C@H](CCC(N)=O)NC(=O)[C@H](C)NC(=O)[C@H](CCCNC(=N)N)NC(=O)[C@H](CCCNC(=N)N)NC(=O)[C@H](CO)NC(=O)[C@H](CC(=O)O)NC(=O)[C@H](CCSC)NC(=O)[C@H](CCC(N)=O)NC(=O)[C@H](CCCCN)NC(=O)[C@H](CO)NC(=O)[C@H](CC(C)C)NC(=O)[C@H](CC(=O)O)NC(=O)[C@H](CO)NC(=O)[C@@H](NC(=O)[C@H](Cc1ccccc1)NC(=O)[C@@H](NC(=O)CNC(=O)[C@H](CCC(N)=O)NC(=O)[C@H](C)NC(=O)[C@@H](N)Cc1c[nH]cn1)[C@@H](C)O)[C@@H](C)O)C(=O)N[C@@H](CCC(=O)O)C(=O)N[C@@H](Cc1c[nH]c2ccccc12)C(=O)N[C@@H](CC(C)C)C(=O)N[C@@H](CCCCN)C(=O)N[C@@H](CC(N)=O)C(=O)NCC(=O)NCC(=O)N1CCC[C@H]1C(=O)N[C@@H](CO)C(=O)N[C@@H](CO)C(=O)NCC(=O)N[C@@H](C)C(=O)N1CCC[C@H]1C(=O)N1CCC[C@H]1C(=O)N1CCC[C@H]1C(=O)N[C@@H](CO)C(N)=O [(39)] (H-HAQGTFTSDLSKQMDSRRAQDFIEWLKNGGPSSGAPPPS-NH2) | 4.6
5 | CCCCCCCCCCCCCCCC(=O)N[C@@H](CCC(=O)NCCCC[C@H](NC(=O)[C@@H]1CCCN1C(=O)[C@@H]1CCCN1C(=O)[C@@H]1CCCN1C(=O)[C@H](C)NC(=O)CNC(=O)[C@H](CO)NC(=O)[C@H](CO)NC(=O)[C@@H]1CCCN1C(=O)CNC(=O)CNC(=O)[C@H](CC(N)=O)NC(=O)[C@H](CCCCN)NC(=O)[C@H](CC(C)C)NC(=O)[C@H](Cc1c[nH]c2ccccc12)NC(=O)[C@H](CCC(=O)O)NC(=O)[C@@H](NC(=O)[C@H](Cc1ccccc1)NC(=O)[C@H](CC(=O)O)NC(=O)[C@H](CCC(N)=O)NC(=O)[C@H](C)NC(=O)[C@H](CCCNC(=N)N)NC(=O)[C@H](CCCNC(=N)N)NC(=O)[C@H](CO)NC(=O)[C@H](CC(=O)O)NC(=O)[C@H](CCSC)NC(=O)[C@H](CCC(N)=O)NC(=O)[C@H](CCCCN)NC(=O)[C@H](CO)NC(=O)[C@H](CC(C)C)NC(=O)[C@H](CC(=O)O)NC(=O)[C@H](CO)NC(=O)[C@@H](NC(=O)[C@H](Cc1ccccc1)NC(=O)[C@@H](NC(=O)CNC(=O)[C@H](CCC(N)=O)NC(=O)[C@@H](CO)NC(=O)[C@@H](N)Cc1c[nH]cn1)[C@@H](C)O)[C@@H](C)O)[C@@H](C)CC)C(N)=O)C(=O)O [(51)] | 5.8
6 | CCCCCCCCCCCCCCCC(=O)N[C@@H](CCC(=O)NCCCC[C@H](NC(=O)[C@@H]1CCCN1C(=O)[C@@H]1CCCN1C(=O)[C@@H]1CCCN1C(=O)[C@H](C)NC(=O)CNC(=O)[C@H](CO)NC(=O)[C@H](CO)NC(=O)[C@@H]1CCCN1C(=O)CNC(=O)CNC(=O)[C@H](CC(N)=O)NC(=O)[C@H](CCCCN)NC(=O)[C@H](CC(C)C)NC(=O)[C@H](Cc1c[nH]c2ccccc12)NC(=O)[C@H](CCC(=O)O)NC(=O)[C@@H](NC(=O)[C@H](Cc1ccccc1)NC(=O)[C@H](CC(=O)O)NC(=O)[C@H](CCC(N)=O)NC(=O)[C@H](C)NC(=O)[C@H](CCCNC(=N)N)NC(=O)[C@H](CCCNC(=N)N)NC(=O)[C@H](CO)NC(=O)[C@H](CC(=O)O)NC(=O)[C@H](CCSC)NC(=O)[C@H](CCC(N)=O)NC(=O)[C@H](CCCCN)NC(=O)[C@H](CO)NC(=O)[C@H](CC(C)C)NC(=O)[C@H](CC(=O)O)NC(=O)[C@H](CO)NC(=O)[C@@H](NC(=O)[C@H](Cc1ccccc1)NC(=O)[C@@H](NC(=O)CNC(=O)[C@H](CCC(N)=O)NC(=O)C(C)(C)NC(=O)[C@@H](N)Cc1c[nH]cn1)[C@@H](C)O)[C@@H](C)O)[C@@H](C)CC)C(N)=O)C(=O)O [(52)] (H-H[Aib]QGTFTSDLSKQMDSRRAQDFIEWLKNGGPSSGAPPPK([γGlu-Palmitoyl])-NH2) | 4.1
7 | CCCCCCCCCCCCCCCC(=O)N[C@@H](CCC(=O)NCCCC[C@H](NC(=O)[C@H](CO)NC(=O)[C@@H]1CCCN1C(=O)[C@@H]1CCCN1C(=O)[C@@H]1CCCN1C(=O)[C@H](C)NC(=O)CNC(=O)[C@H](CO)NC(=O)[C@H](CO)NC(=O)[C@@H]1CCCN1C(=O)CNC(=O)CNC(=O)[C@H](CC(N)=O)NC(=O)[C@H](CCCCN)NC(=O)[C@H](CC(C)C)NC(=O)[C@H](Cc1c[nH]c2ccccc12)NC(=O)[C@H](CCC(=O)O)NC(=O)[C@@H](NC(=O)[C@H](Cc1ccccc1)NC(=O)[C@H](CC(=O)O)NC(=O)[C@H](CCC(N)=O)NC(=O)[C@H](C)NC(=O)[C@H](CCCNC(=N)N)NC(=O)[C@H](CCCNC(=N)N)NC(=O)[C@H](CO)NC(=O)[C@H](CC(=O)O)NC(=O)[C@H](CCSC)NC(=O)[C@H](CCC(N)=O)NC(=O)[C@H](CCCCN)NC(=O)[C@H](CO)NC(=O)[C@H](CC(C)C)NC(=O)[C@H](CC(=O)O)NC(=O)[C@H](CO)NC(=O)[C@@H](NC(=O)[C@H](Cc1ccccc1)NC(=O)[C@@H](NC(=O)CNC(=O)[C@H](CCC(N)=O)NC(=O)C(C)(C)NC(=O)[C@@H](N)Cc1c[nH]cn1)[C@@H](C)O)[C@@H](C)O)[C@@H](C)CC)C(N)=O)C(=O)O [(59)] (H-H[Aib]QGTFTSDLSKQMDSRRAQDFIEWLKNGGPSSGAPPPSK([γGlu-Palmitoyl])-NH2) | 2.9
8 | CCCCCCCCCCCCCCCC(=O)N[C@@H](CCC(=O)NCCCC[C@H](NC(=O)[C@H](CO)NC(=O)[C@@H]1CCCN1C(=O)[C@@H]1CCCN1C(=O)[C@@H]1CCCN1C(=O)[C@H](C)NC(=O)CNC(=O)[C@H](CO)NC(=O)[C@H](CO)NC(=O)[C@@H]1CCCN1C(=O)CNC(=O)CNC(=O)[C@H](CC(N)=O)NC(=O)[C@H](CCCCN)NC(=O)[C@H](CC(C)C)NC(=O)[C@H](Cc1c[nH]c2ccccc12)NC(=O)[C@H](CCC(=O)O)NC(=O)[C@@H](NC(=O)[C@H](Cc1ccccc1)NC(=O)[C@H](CC(=O)O)NC(=O)[C@H](CCC(N)=O)NC(=O)[C@H](C)NC(=O)[C@H](CCCNC(=N)N)NC(=O)[C@H](CCCNC(=N)N)NC(=O)[C@H](CO)NC(=O)[C@H](CCC(=O)O)NC(=O)[C@H](CCSC)NC(=O)[C@H](CCC(N)=O)NC(=O)[C@H](CCCCN)NC(=O)[C@H](CO)NC(=O)[C@H](CC(C)C)NC(=O)[C@H](CC(=O)O)NC(=O)[C@H](CO)NC(=O)[C@@H](NC(=O)[C@H](Cc1ccccc1)NC(=O)[C@@H](NC(=O)CNC(=O)[C@H](CCC(N)=O)NC(=O)[C@@H](CO)NC(=O)[C@@H](N)Cc1c[nH]cn1)[C@@H](C)O)[C@@H](C)O)[C@@H](C)CC)C(N)=O)C(=O)O [(61)] (H-H[dS]QGTFTSDLSKQMESRRAQDFIEWLKNGGPSSGAPPPSK([γGlu-Palmitoyl])-NH2) | 4.2
